Laboratory results published in ChEMBL document CHEMBL5143615, “Novel 2-aryl-4-aryloxyquinoline-based fungistatics for Mucor circinelloides. Biological evaluation of activity, QSAR and docking study” (Bioorg Med Chem Lett, 2022).
Values after ≈ are worked out from the molar mass of the structure shown. Active and inactive are the calls of the source. The calls are words filed in the database; no cut-off is given here.

System: Aspergillus niger
Test: Antifungal activity against Aspergillus niger clinical isolate 1 assessed as reduction in fungal growth by broth dilution method
Type: functional
Settings: not given

Row | SMILES | MIC
1 | OC(Cn1cncn1)(Cn1cncn1)c1ccc(F)cc1F [FLUCONAZOLE] | 50 µg/mL (≈ 163 µM)

System: Mucor circinelloides
Test: Antifungal activity against Mucor circinelloides R7B wild type strain assessed as reduction in fungal growth by broth dilution method
Type: functional
Settings: not given

Row | SMILES | MIC
2 | OC(Cn1cncn1)(Cn1cncn1)c1ccc(F)cc1F [FLUCONAZOLE] | 150 µg/mL (≈ 490 µM)

System: not listed separately
Test: Cytotoxicity against mouse NIH/3T3 cells assessed as reduction in cell viability at 25 ug/ml incubated for 48 hrs by MTT assay (reference value: 93.8 +/- 4.9 %)
Type: toxicity, cell-based, NIH3T3
Settings: at 25 µg/mL, read-out: Activity

Row | SMILES | viability at 48 h, 25 ug/ml
3 | OC(Cn1cncn1)(Cn1cncn1)c1ccc(F)cc1F [FLUCONAZOLE] | 98.2%

System: not listed separately
Test: Cytotoxicity against mouse NIH/3T3 cells assessed as reduction in cell viability at 50 ug/ml incubated for 48 hrs by MTT assay (reference value: 93.8 +/- 4.9 %)
Type: toxicity, cell-based, NIH3T3
Settings: at 50 µg/mL, read-out: Activity

Row | SMILES | viability at 48 h, 50 ug/ml
4 | OC(Cn1cncn1)(Cn1cncn1)c1ccc(F)cc1F [FLUCONAZOLE] | 25%

System: not listed separately
Test: Cytotoxicity against mouse NIH/3T3 cells assessed as reduction in cell viability at 100 ug/ml incubated for 48 hrs by MTT assay (reference value: 93.8 +/- 4.9 %)
Type: toxicity, cell-based, NIH3T3
Settings: at 100 µg/mL, read-out: Activity

Row | SMILES | viability at 48 h, 100 ug/ml
5 | OC(Cn1cncn1)(Cn1cncn1)c1ccc(F)cc1F [FLUCONAZOLE] | 18.8%

System: not listed separately
Test: Cytotoxicity against mouse NIH/3T3 cells assessed as reduction in cell viability at 150 ug/ml incubated for 48 hrs by MTT assay (reference value: 93.8 +/- 4.9 %)
Type: toxicity, cell-based, NIH3T3
Settings: at 150 µg/mL, read-out: Activity

Row | SMILES | viability at 48 h, 150 ug/ml
6 | OC(Cn1cncn1)(Cn1cncn1)c1ccc(F)cc1F [FLUCONAZOLE] | 15.5%

System: not listed separately
Test: Cytotoxicity against mouse NIH/3T3 cells assessed as reduction in cell viability at 200 ug/ml incubated for 48 hrs by MTT assay (reference value: 93.8 +/- 4.9 %)
Type: toxicity, cell-based, NIH3T3
Settings: at 200 µg/mL, read-out: Activity

Row | SMILES | viability at 48 h, 200 ug/ml
7 | OC(Cn1cncn1)(Cn1cncn1)c1ccc(F)cc1F [FLUCONAZOLE] | 15.7%

Target: T1, Lanosterol 14-alpha demethylase (Mus musculus, UniProt Q8K0C4)
T1 sequence (Q8K0C4 whole entry): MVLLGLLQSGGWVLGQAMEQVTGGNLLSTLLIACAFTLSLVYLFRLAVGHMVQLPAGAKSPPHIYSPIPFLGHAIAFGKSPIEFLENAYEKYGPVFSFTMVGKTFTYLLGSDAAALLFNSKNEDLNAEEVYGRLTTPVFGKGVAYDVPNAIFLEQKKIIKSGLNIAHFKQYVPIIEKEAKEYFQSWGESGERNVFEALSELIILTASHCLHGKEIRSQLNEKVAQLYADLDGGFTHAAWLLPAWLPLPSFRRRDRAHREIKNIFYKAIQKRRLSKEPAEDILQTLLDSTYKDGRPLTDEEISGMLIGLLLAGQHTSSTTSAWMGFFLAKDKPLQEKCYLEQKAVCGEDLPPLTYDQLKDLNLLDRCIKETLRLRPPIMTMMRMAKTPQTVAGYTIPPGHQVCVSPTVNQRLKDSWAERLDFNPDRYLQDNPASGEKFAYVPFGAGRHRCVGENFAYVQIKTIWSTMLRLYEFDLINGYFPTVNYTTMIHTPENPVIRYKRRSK
Test: Inhibition of CYP51 in mouse NIH/3T3 cells assessed as specific enzymatic activity at 25 ug/ml incubated for 48 hrs by ELISA analysis
Type: ADME, cell-based
Settings: nih/3t3, 48 h, dose 25 µg/ml

Row | SMILES | Activity
8 | OC(Cn1cncn1)(Cn1cncn1)c1ccc(F)cc1F [FLUCONAZOLE] | 12.8 U/mg

Target: T1, Lanosterol 14-alpha demethylase
Test: Inhibition of CYP51 in mouse NIH/3T3 cells assessed as specific enzymatic activity at 50 ug/ml incubated for 48 hrs by ELISA analysis
Type: ADME, cell-based
Settings: nih/3t3, 48 h, dose 50 µg/ml

Row | SMILES | Activity
9 | OC(Cn1cncn1)(Cn1cncn1)c1ccc(F)cc1F [FLUCONAZOLE] | 7.18 U/mg

Target: T1, Lanosterol 14-alpha demethylase
Test: Inhibition of CYP51 in mouse NIH/3T3 cells assessed as specific enzymatic activity at 100 ug/ml incubated for 48 hrs by ELISA analysis
Type: ADME, cell-based
Settings: nih/3t3, 48 h, dose 100 µg/ml

Row | SMILES | Activity
10 | OC(Cn1cncn1)(Cn1cncn1)c1ccc(F)cc1F [FLUCONAZOLE] | 2.49 U/mg

Target: T1, Lanosterol 14-alpha demethylase
Test: Inhibition of CYP51 in mouse NIH/3T3 cells assessed as specific enzymatic activity at 150 ug/ml incubated for 48 hrs by ELISA analysis
Type: ADME, cell-based
Settings: nih/3t3, 48 h, dose 150 µg/ml

Row | SMILES | Activity
11 | OC(Cn1cncn1)(Cn1cncn1)c1ccc(F)cc1F [FLUCONAZOLE] | 1.25 U/mg

Target: T1, Lanosterol 14-alpha demethylase
Test: Inhibition of CYP51 in mouse NIH/3T3 cells assessed as specific enzymatic activity at 200 ug/ml incubated for 48 hrs by ELISA analysis
Type: ADME, cell-based
Settings: nih/3t3, 48 h, dose 200 µg/ml

Row | SMILES | Activity
12 | OC(Cn1cncn1)(Cn1cncn1)c1ccc(F)cc1F [FLUCONAZOLE] | 0 U/mg

System: Mucor circinelloides
Test: Antifungal activity against Mucor circinelloides R7B wild type strain assessed as few mycelia with several spores at 50 ug/ml by microscopic analysis
Type: functional, organism-based
Settings: dose 50.0 µg/ml

Row | SMILES | Activity
13 | OC(Cn1cncn1)(Cn1cncn1)c1ccc(F)cc1F [FLUCONAZOLE] | Active

System: Mucor circinelloides
Test: Antifungal activity against Mucor circinelloides M5 strain assessed as few mycelia with several spores at 50 ug/ml by microscopic analysis
Type: functional, organism-based
Settings: dose 50.0 µg/ml

Row | SMILES | Activity
14 | OC(Cn1cncn1)(Cn1cncn1)c1ccc(F)cc1F [FLUCONAZOLE] | Active

System: Mucor circinelloides
Test: Antifungal activity against Mucor circinelloides R7B wild type strain assessed as non-germinated spores and undifferentiated hyphae at 50 ug/ml by microscopic analysis
Type: functional, organism-based
Settings: dose 50.0 µg/ml

Row | SMILES | Activity
15 | OC(Cn1cncn1)(Cn1cncn1)c1ccc(F)cc1F [FLUCONAZOLE] | Active

System: Mucor circinelloides
Test: Antifungal activity against Mucor circinelloides M5 strain assessed as non-germinated spores and undifferentiated hyphae at 50 ug/ml by microscopic analysis
Type: functional, organism-based
Settings: dose 50.0 µg/ml

Row | SMILES | Activity
16 | OC(Cn1cncn1)(Cn1cncn1)c1ccc(F)cc1F [FLUCONAZOLE] | Active

System: Mucor circinelloides
Test: Antifungal activity against Mucor circinelloides R7B wild type strain assessed as complete absence of mycelia at 100 to 150 ug/ml by microscopic analysis
Type: functional, organism-based
Settings: dose 100-150 µg/ml

Row | SMILES | Activity
17 | OC(Cn1cncn1)(Cn1cncn1)c1ccc(F)cc1F [FLUCONAZOLE] | Active

System: Mucor circinelloides
Test: Antifungal activity against Mucor circinelloides M5 strain assessed as complete absence of mycelia at 100 to 150 ug/ml by microscopic analysis
Type: functional, organism-based
Settings: dose 100-150 µg/ml

Row | SMILES | Activity
18 | OC(Cn1cncn1)(Cn1cncn1)c1ccc(F)cc1F [FLUCONAZOLE] | Active

System: Mucor circinelloides
Test: Antifungal activity against Mucor circinelloides R7B wild type strain assessed as non-germinated spores at 100 to 150 ug/ml by microscopic analysis
Type: functional, organism-based
Settings: dose 100-150 µg/ml

Row | SMILES | Activity
19 | OC(Cn1cncn1)(Cn1cncn1)c1ccc(F)cc1F [FLUCONAZOLE] | Active

System: Mucor circinelloides
Test: Antifungal activity against Mucor circinelloides M5 strain assessed as non-germinated spores at 100 to 150 ug/ml by microscopic analysis
Type: functional, organism-based
Settings: dose 100-150 µg/ml

Row | SMILES | Activity
20 | OC(Cn1cncn1)(Cn1cncn1)c1ccc(F)cc1F [FLUCONAZOLE] | Active
